Assay results from patent US9340590B2 (priority 2011, dated 2016).
Where “and” joins values, the source holds several entries; their conditions need not be identical. Equal values may be shown once. Entries after “also recorded” stand apart in the source; their conditions may differ. Read-outs that look alike come from different tables or passages of the source.

Legend:
[1] = system: isolated perfused rabbit heart
[2] = system: formalin pain model in male CD-1 mice; settings: for time spent lifting/licking, first phase / time spent lifting/licking, second phase: third study
in vitro [3] = settings: human, plasma
[4] = system: isolated perfused rabbit heart; remark: listed apart in the source
hNav1.5 [5] = target: T1, hNav1.5 (Homo sapiens, UniProt Q14524); assay: cell-based
T1 sequence (Q14524 whole entry, looked up): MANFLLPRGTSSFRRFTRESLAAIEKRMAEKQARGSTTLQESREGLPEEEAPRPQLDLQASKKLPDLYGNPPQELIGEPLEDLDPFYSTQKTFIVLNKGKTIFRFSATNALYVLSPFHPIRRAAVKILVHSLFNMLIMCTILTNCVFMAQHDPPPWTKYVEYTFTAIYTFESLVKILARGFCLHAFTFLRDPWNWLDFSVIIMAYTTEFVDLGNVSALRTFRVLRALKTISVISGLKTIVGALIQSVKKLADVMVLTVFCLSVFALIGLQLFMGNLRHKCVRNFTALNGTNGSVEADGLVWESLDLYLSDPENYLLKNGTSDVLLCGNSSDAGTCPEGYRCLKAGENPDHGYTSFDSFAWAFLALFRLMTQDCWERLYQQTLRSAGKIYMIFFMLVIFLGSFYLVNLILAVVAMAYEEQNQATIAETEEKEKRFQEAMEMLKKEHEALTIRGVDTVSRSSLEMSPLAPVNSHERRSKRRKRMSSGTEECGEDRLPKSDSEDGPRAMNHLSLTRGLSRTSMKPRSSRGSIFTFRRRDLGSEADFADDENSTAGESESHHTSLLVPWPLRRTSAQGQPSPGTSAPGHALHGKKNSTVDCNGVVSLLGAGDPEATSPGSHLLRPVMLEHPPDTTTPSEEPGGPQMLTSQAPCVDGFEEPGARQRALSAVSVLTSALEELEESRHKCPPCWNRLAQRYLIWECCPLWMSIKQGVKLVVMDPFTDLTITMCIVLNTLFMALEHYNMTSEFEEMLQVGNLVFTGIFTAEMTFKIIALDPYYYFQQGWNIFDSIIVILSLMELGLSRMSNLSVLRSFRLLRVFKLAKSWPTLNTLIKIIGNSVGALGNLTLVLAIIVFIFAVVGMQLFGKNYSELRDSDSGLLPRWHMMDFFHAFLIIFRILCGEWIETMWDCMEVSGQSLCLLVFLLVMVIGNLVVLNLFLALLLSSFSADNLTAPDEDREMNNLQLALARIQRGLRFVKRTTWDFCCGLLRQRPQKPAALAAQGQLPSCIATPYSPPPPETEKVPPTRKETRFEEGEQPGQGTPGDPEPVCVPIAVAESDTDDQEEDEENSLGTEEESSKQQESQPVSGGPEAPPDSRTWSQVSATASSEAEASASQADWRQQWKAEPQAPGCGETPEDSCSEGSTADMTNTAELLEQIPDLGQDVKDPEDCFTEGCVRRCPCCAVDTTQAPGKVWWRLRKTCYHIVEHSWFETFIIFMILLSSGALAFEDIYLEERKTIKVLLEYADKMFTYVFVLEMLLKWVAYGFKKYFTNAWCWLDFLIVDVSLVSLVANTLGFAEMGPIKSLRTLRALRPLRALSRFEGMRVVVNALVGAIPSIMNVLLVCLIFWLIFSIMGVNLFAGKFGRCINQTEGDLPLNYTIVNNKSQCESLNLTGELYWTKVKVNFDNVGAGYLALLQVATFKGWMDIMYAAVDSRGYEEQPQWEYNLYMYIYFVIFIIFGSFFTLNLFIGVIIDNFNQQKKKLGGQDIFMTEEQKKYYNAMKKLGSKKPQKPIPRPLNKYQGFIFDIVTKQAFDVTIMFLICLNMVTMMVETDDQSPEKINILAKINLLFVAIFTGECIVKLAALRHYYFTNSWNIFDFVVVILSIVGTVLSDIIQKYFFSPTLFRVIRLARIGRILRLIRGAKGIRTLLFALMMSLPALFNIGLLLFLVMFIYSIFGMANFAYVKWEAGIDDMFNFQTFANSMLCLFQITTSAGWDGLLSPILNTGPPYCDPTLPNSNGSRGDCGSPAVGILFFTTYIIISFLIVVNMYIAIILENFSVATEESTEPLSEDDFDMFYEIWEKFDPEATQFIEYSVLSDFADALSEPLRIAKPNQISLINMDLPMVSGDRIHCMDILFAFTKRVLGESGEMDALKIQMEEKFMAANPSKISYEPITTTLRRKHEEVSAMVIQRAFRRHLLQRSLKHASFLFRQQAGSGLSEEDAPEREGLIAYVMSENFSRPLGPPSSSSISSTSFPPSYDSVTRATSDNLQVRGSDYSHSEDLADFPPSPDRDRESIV

hNav1.7 [6] = target: T2, hNav1.7 (Homo sapiens, UniProt Q15858); assay: cell-based; settings: Nav1.7 Use IC50
T2 sequence (Q15858 whole entry, looked up): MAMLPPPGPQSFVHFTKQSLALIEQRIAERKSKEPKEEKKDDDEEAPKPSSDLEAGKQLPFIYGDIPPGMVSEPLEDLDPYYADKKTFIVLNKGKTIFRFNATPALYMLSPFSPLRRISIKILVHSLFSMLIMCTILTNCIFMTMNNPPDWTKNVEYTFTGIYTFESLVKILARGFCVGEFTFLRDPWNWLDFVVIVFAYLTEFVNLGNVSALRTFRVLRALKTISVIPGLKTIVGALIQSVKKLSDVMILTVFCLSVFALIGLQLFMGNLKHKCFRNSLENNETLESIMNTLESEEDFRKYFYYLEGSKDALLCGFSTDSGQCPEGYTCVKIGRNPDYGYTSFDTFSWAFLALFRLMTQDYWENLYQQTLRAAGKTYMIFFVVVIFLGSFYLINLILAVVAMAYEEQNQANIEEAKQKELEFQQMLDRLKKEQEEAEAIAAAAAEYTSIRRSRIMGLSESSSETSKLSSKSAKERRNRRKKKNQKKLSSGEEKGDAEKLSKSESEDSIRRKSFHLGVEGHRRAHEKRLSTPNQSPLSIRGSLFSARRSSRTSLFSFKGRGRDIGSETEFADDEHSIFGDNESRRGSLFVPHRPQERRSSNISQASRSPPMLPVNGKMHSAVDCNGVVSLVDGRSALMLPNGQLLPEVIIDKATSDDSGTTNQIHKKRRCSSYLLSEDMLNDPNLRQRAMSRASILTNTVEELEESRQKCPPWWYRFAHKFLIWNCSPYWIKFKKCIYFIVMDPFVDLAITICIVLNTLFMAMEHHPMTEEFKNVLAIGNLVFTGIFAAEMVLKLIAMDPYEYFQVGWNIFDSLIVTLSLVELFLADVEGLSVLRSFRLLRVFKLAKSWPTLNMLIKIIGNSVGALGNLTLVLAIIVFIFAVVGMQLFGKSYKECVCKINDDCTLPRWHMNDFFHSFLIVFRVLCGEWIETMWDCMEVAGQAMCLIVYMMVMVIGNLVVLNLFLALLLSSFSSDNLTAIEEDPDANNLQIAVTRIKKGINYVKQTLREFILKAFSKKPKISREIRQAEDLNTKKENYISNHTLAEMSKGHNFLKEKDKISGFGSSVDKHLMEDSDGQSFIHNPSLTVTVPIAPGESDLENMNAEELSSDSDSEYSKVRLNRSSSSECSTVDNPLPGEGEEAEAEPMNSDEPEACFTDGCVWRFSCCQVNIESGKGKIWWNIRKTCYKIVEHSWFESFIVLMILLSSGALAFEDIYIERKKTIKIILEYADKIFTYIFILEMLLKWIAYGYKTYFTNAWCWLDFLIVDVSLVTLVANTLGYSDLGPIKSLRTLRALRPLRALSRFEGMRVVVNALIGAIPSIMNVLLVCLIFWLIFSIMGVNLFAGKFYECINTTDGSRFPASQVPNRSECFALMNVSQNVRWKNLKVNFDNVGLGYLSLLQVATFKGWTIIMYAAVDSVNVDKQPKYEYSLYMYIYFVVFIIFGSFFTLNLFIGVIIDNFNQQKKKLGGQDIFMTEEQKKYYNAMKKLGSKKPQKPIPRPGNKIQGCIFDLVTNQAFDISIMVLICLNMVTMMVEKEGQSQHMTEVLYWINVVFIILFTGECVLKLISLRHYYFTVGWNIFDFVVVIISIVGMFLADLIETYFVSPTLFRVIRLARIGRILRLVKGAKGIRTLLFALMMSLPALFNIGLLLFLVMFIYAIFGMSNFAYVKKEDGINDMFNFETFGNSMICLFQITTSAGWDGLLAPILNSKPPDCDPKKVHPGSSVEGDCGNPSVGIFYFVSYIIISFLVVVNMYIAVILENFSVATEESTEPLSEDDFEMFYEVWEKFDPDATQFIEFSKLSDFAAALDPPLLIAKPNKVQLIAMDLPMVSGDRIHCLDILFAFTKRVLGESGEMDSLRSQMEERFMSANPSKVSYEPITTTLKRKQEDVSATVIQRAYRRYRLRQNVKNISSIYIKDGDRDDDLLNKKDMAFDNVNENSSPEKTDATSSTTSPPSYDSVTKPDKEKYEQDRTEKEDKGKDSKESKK

hNav1.5 [7] = target: T1, hNav1.5; assay: cell-based; settings: PatchXpress counterscreen; held at −80 mV, prepulse −120 mV, test step −30 mV; read-out: IC50 against hNav1.5 (counterscreen)
hNav1.3 [8] = target: T3, hNav1.3 (Homo sapiens, UniProt Q9NY46); assay: cell-based; settings: IonWorks Quattro; clamped to −110 mV, depolarized to −10 mV, 5 min after compound; n=2; read-out: IWQ Use Nav1.3
in vitro [9] = settings: mouse, plasma
hNav1.7 [10] = target: T2, hNav1.7; type: cell-based
fast sodium current = type: cell-based; settings: 500 nM; rat DRG neuron, step to 0 mV from −90 mV
hERG = hERG (Homo sapiens, UniProt Q12809); assay: cell-based
hERG, sequence (Q12809 whole entry): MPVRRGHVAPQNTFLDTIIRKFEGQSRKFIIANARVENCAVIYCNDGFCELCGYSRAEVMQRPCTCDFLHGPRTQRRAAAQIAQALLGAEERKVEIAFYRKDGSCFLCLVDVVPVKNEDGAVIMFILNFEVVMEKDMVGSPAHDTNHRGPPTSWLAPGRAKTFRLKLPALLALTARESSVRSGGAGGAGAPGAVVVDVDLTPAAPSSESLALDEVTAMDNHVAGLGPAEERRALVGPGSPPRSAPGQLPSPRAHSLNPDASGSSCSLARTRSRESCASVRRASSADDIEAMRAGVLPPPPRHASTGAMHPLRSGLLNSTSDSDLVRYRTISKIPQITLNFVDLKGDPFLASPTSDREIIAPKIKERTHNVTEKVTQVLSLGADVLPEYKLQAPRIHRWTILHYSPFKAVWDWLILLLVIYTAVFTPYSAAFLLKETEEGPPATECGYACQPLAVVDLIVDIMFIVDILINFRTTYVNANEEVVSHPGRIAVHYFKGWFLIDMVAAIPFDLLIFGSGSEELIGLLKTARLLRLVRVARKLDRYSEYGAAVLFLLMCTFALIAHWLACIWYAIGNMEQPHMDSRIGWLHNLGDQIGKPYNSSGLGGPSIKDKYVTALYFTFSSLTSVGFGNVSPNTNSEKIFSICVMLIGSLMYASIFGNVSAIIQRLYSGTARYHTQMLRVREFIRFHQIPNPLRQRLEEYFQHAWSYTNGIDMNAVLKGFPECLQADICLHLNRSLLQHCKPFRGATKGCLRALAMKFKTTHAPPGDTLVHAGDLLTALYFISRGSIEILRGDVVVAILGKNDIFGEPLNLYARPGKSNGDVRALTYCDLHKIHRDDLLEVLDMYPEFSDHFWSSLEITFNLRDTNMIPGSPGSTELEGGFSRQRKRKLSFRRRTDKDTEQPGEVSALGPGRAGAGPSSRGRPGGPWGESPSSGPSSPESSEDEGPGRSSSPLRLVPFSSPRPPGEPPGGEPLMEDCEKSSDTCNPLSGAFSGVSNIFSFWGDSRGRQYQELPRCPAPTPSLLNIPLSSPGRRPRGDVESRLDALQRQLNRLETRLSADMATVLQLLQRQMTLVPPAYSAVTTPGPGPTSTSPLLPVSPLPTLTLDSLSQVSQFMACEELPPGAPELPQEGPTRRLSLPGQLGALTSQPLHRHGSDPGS

in vivo [11] = settings: male, CD-1, mouse, sc
[12] = mouse plasma, 37° C., incubation time 0 hr (normalisation point)
[13] = system: locomotor activity in male CD-1 mice
in vivo [14] = settings: CD-1, mouse
hNav1.3 [15] = target: T3, hNav1.3; assay: cell-based; type: cell-based; settings: Nav1.3 Use IC50
hNav1.2 = hNav1.2 (Homo sapiens, UniProt Q99250); assay: cell-based; settings: partially inactivated channels; read-out: IC50 against partially inactivated hNav1.2 channels
in vivo [16] = settings: male, CD-1, mouse, sc, terminal exposure (peptide plasma concentration at 2 h post peptide injection)
hNav1.5 [17] = target: T1, hNav1.5; assay: cell-based; settings: IonWorks Quattro; clamped to −110 mV, depolarized to −10 mV, 5 min after compound; n=2; read-out: IWQ Use Nav1.5
[18] = system: TTX-sensitive Nav channels in mouse DRG neurons; type: cell-based
[19] = system: voltage-gated potassium currents; type: cell-based; settings: 500 nM; rat DRG neuron, step to 0 mV from −90 mV
[20] = human plasma, 37° C., incubation time 0 hr (normalisation point)
hNav1.7 [21] = target: T2, hNav1.7; assay: cell-based; type: cell-based
Nav1.4 = Nav1.4 (Rattus norvegicus, UniProt P15390); settings: read-out: TTX IC50; cited from earlier work
Nav1.3 = Nav1.3 (Rattus norvegicus, UniProt P08104); settings: read-out: TTX IC50; cited from earlier work
Nav1.7 = Nav1.7 (Rattus norvegicus, UniProt O08562); settings: read-out: TTX IC50; cited from earlier work
Nav1.6 = Nav1.6 (Rattus norvegicus, UniProt O88420); settings: read-out: TTX IC50; cited from earlier work
Nav1.8 = Nav1.8 (Rattus norvegicus, UniProt Q62968); settings: read-out: TTX IC50; cited from earlier work
[22] = first study, 5 mg/kg s.c., 1-hour pre-treatment
[23] = later studies (FIGS. 99-110), 5 mg/kg s.c., 1-hour pre-treatment

## CC[C@H](C)[C@@H]1NC(=O)[C@@H]2CSSC[C@@H]3NC(=O)[C@H](C(C)C)NC(=O)[C@H](CC(C)C)NC(=O)[C@H](CC(N)=O)NC(=O)[C@@H]4CCCN4C(=O)[C@H](CCCNC(=N)N)NC(=O)[C@H](CSSC[C@H](NC(=O)[C@@H](N)CC(=O)O)C(=O)N[C@@H](CC(C)C)C(=O)NCC(=O)N[C@@H](C)C(=O)N[C@@H](CCSC)C(=O)N[C@@H](CCCNC(=N)N)C(=O)N[C@@H](CCCCN)C(=O)N2)NC(=O)[C@H](CSSC[C@@H](C(=O)N[C@@H](CCCCN)C(=O)N[C@@H](Cc2ccc(O)cc2)C(=O)N[C@H](C(=O)N[C@@H](Cc2ccccc2)C(N)=O)C(C)C)NC(=O)[C@H](Cc2c[nH]c4ccccc24)NC(=O)[C@H](CCCCN)NC(=O)[C@H](Cc2cnc[nH]2)NC(=O)[C@H]([C@@H](C)O)NC(=O)[C@H](CCCNC(=N)N)NC(=O)[C@H](CO)NC3=O)NC(=O)[C@H](CCCCN)NC(=O)[C@H](CC(=O)O)NC(=O)[C@H](CC(N)=O)NC(=O)[C@H](CC(=O)O)NC(=O)[C@@H]2CCCN2C1=O [SEQ ID NO: 22]
[1]
  HR, normalized value, mean: −0.18%
  JT, normalized value, mean: −4.57%
  JTcF, normalized value, mean: −4.60%
  PR, normalized value, mean: −3.52%
  QRS, normalized value, mean: −1.55%
  QT, normalized value, mean: −4.19%
  QTcF, normalized value, mean: −4.22%
[1]; 1 μM, 20 minutes
  heart rate: no effects
  ventricular depolarization and conduction (QRS and PR intervals): no effects
  ventricular repolarization (QTc or JTc intervals): no delaying effects
[2]; first two mouse formalin experiments
  plasma concentrations with significant reproducible reduction in paw lifting/licking: 0.60 to 0.80 µM
[2]; mouse, in vivo
  time spent lifting and/or licking the affected paw, second phase (5-40 minutes post formalin injection): significantly reduced
[2]; peptide 1 mg/kg s.c.
  time spent lifting/licking, first phase: appeared to increase
  time spent lifting/licking, second phase: not significantly different
[2]; peptide 3 mg/kg s.c.
  time spent lifting/licking, first phase: appeared to increase
  time spent lifting/licking, second phase: appeared to significantly increase
In vitro [3]
  remaining at 2 h: 105%
  remaining at 4 h: 99%
  remaining at 8 h: 101%
  remaining at 24 h: 105%
[4]
  Flow, mean, normalized value: 0.29%
  LVDP, mean, normalized value: −3.16%
  LVDevP, normalized value: −7.22%
  LVSP, mean, normalized value: −8.81%
  dP/dt+, mean, normalized value: −6.55%
  dP/dt−, mean, normalized value: −2.93%
[4]; 1 μM, 20 minutes
  LV contractility (dP/dt+): no effects
  coronary blood flow (CF): no effects
  coronary vasculature: no direct effects
hNav1.5 [5]
  IC50: > 10000 nM
hNav1.7 [6]
  IC50: 18 nM and 34 nM and 30 nM and 14 nM
hNav1.5 [7]
  IC50: > 30000 nM
hNav1.3 [8]
  IC50: 1750 nM
In vitro [9]
  remaining at 2 h: 106%
  remaining at 4 h: 107%
  remaining at 8 h: 105%
  remaining at 24 h: 99%
hNav1.7 [10]
  inhibition of the Nav1.7 current: complete inhibition
hNav1.7 [10]; read-out: IC50 against partially inactivated hNav1.7 channels
  IC50: 13.2 nM
Fast sodium current
  effect on fast sodium current: blocked fast sodium current; also recorded: steadily decreased
hERG
  IC50: > 10000 nM
In vivo [11]; 0.5 mg/kg, terminal exposure (peptide plasma concentration at 45 min post formalin injection), second study, 0.5 mg/kg s.c.
  level at time molar at […]: 40 nM
In vivo [11]; 1 mg/kg, terminal exposure (peptide plasma concentration at 45 min post formalin injection), third study, 1 mg/kg s.c.
  level at time molar at […]: 200 ± 50 nM
In vivo [11]; 3 mg/kg, terminal exposure (peptide plasma concentration at 45 min post formalin injection), third study, 3 mg/kg s.c.
  level at time molar at […]: 530 ± 230 nM
In vivo [11]; 5 mg/kg, terminal exposure (peptide plasma concentration at 45 min post formalin injection), second study, 5.0 mg/kg s.c.
  level at time molar at […]: 580 ± 260 nM
In vivo [11]; 5 mg/kg, terminal exposure (peptide plasma concentration at 45 min post formalin injection), third study, 5 mg/kg s.c.
  level at time molar at […]: 1840 ± 180 nM
In vivo [11]; 5 mg/kg, terminal plasma exposure (peptide plasma concentration at 45 min post formalin injection), first study, 5 mg/kg s.c.
  level at time molar at […]: 800 ± 210 nM
[12]
  % peptide remaining: 100%
1 mg/kg i.v.
  tolerability in mice: tolerated
1 mg/kg s.c.
  exposure in blood: measurable exposure
5 mg/kg s.c.
  sustained peptide concentration in the plasma: about 0.6 μM
  time plasma concentration was sustained: 3 h
[13]; [22]
  total fine movement: significantly reduced
  total time rearing: significantly reduced
[13]; [23]
  total basic movement: significantly reduced
  total fine movement: significantly reduced
  total rearing: significantly reduced
  total time rearing: significantly reduced
[13]; mouse, in vivo
  peptide plasma concentrations resulting in significant effects on locomotor activity: > 1.5 µM
In vivo [14]; sc, 5 mg/kg
  half-life: 36 min
  level at time molar: ~600 nM
In vivo [14]; male, iv, 1 mg/kg
  half-life: ~15 min
hNav1.3 [15]
  IC50: 129 nM and 158 nM
hNav1.2
  IC50: 265 nM
In vivo [16]; 3 mg/kg, first study, 3 mg/kg s.c.
  level at time molar at 2 h: 890 ± 330 nM
In vivo [16]; 5 mg/kg, first study, 5 mg/kg s.c.
  level at time molar at 2 h: 1790 ± 380 nM
In vivo [16]; 5 mg/kg, later studies, 5 mg/kg s.c.
  level at time molar at 2 h: 2100 ± 470 nM
hNav1.5 [17]
  IC50: 10300 nM
[18]
  block of TTX-sensitive Nav current, time course of increasing concentrations: blocked nearly all TTX-sensitive Nav current
  block of TTX-sensitive versus TTX-resistant Nav current: selectively blocked TTX-sensitive Nay current but not TTX-resistant Nav current
[18]; cells held at −140 mV, read-out: IC50 against TTX-sensitive sodium channels in mDRG neurons
  IC50: 17 nM
[19]
  effect on voltage-gated potassium currents: did not block voltage-gated potassium currents
[20]
  % peptide remaining: 100%
hNav1.7 [21]
  IC50: 640 nM

## NC1=N[C@H](O)[C@H]2[C@H]3O[C@]4(O)O[C@@H]([C@@H](O)[C@@]2(N1)[C@@H]4O)[C@]3(O)CO [TTX, tetrodotoxin]
Nav1.4
  IC50: 5 nM
Nav1.3
  IC50: 2 to 15 nM
Nav1.7
  IC50: 4 nM
Nav1.6
  IC50: 1 nM
Nav1.8
  IC50: > 50000 nM
